Assay results from patent EP2102204B1, “NEW AMINOPYRROLO[1,2- A]INDOLE ET AMINOPYRIDAZINO[1,6-A]INDOLE DERIVATIVES, METHOD FOR PREPARING THE SAME AND PHARMACEUTICAL COMPOSITIONS CONTAINING THE SAME” (Les Laboratoires Servier, priority 2007, dated 2008).
Where two headings read alike, the source gives them in different places.

What was measured:
[1] = test system: protéine tyrosine hydroxylase (TH); assay: Induction of tyrosine hydroxylase in the locus coeruleus of mice (immunodetection and image analysis of brain sections); format: in vivo, souris Balb/C; conditions: i.p. 20 mg/kg, single injection, 3 days after, % par rapport à la valeur moyenne du groupe témoin; for quantité de TH au niveau du LC, coupe 1: coupe 1 du LC (sens antérieur vers postérieur); for quantité de TH au niveau du LC, coupe 2: coupe 2 du LC (sens antérieur vers postérieur); for quantité de TH au niveau du LC, coupe 3: coupe 3 du LC (sens antérieur vers postérieur); for quantité de TH au niveau du LC, coupe 4: coupe 4 du LC (sens antérieur vers postérieur); for quantité de TH au niveau du LC, coupe 5: coupe 5 du LC (sens antérieur vers postérieur); for quantité de TH au niveau du LC, coupe 6: coupe 6 du LC (sens antérieur vers postérieur); for quantité de TH au niveau du LC, coupe 7: coupe 7 du LC (sens antérieur vers postérieur); for quantité de TH au niveau du LC, coupe 8: coupe 8 du LC (sens antérieur vers postérieur)
Excerpt: Il est recherché, parmi les dérivés, ceux qui sont capables d'induire une augmentation de la protéine tyrosine hydroxylase (TH) dans le cerveau de la souris Balb/C, au niveau du locus coeruleus (LC).
Les animaux utilisés sont des souris mâles de la lignée pure Balb/C (Charles River Laboratories), âgées de 7 à 8 semaines au moment du traitement.
Les souris reçoivent une injection unique par voie intrapéritonéale du composé à tester, dissous dans une solution d'HCl 0,04 M (contrôle correspondant : HCl […]) si le composé est suffisamment soluble, ou dans l'huile d'olive 90 % / DMSO 10 % (contrôle correspondant : huile d'olive 90 % / DMSO 10 %) pour les composés insolubles en milieu aqueux.
Trois jours après l'injection de chaque molécule, tous les animaux sont sacrifiés par décapitation. Les cerveaux extraits sont ensuite congelés dans de l'azote liquide et conservés à -80° C.
Des coupes coronales de 8 microns d'épaisseur sont pratiquées le long de l'axe postéro-antérieur du LC et fixées. Les coupes sont transférées sur membranes Immobilon-P. La TH est mesurée par immunodétection et analyse d'image.

[2] = Prediction of metabolic stability on liver microsomes; format: in vitro ADME; conditions: 10^-7 M, 0,33 mg prot/ml, NADPH, 0-60 minutes
Experimental: La prédiction de stabilité métabolique est testée par incubation des dérivés à la concentration de 10^-7 M en présence de microsomes hépatiques de souris, rat ou d'homme (0,33 mg prot/ml). Après addition de NADPH (nicotinamide adénine dinucléotide phosphate, forme réduite), des prélèvements sont réalisés à 0, 5, 15, 30 et 60 minutes. La réaction enzymatique est arrêtée avec le méthanol (VN). La protéine est précipitée par centrifugation et le surnageant analysé par LC-MS-MS. La bonne stabilité métabolique de ces dérivés permet d'envisager un traitement per os. TABLEAU III

récepteurs sigma (σ) = assay: Receptor affinity, displacement of labelled specific ligand (haloperidol); format: binding
Excerpt: (§1) L'affinité pour les récepteurs est déterminée selon les méthodes habituelles de relation entre le ligand spécifique et le récepteur, qui peut être d'origine animale ou un recombinant humain. Elle a été déterminée par la méthode du déplacement du ligand spécifique marqué par le composé étudié, et exprimée par la constante de dissociation Ki. L'affinité réceptorielle pour 28 récepteurs classiques a ainsi été étudiée. L'étude montre que l'induction de TH observée ne passe pas par une affinité vis-à-vis des récepteurs habituellement touchés par les produits psychotropes, comme les récepteurs adrénergiques alpha (de type α2), 5HT (de type 5HT2A), dopaminergiques (de type D1 et D2). Quelques dérivés montrent une affinité non négligeable pour les récepteurs sigma (σ) (ligand halopéridol) ou muscarinique (M). TABLEAU II

[3] = test system: récepteurs adrénergiques alpha (de type α2); assay: Receptor affinity, displacement of labelled specific ligand; format: binding; conditions: concentration 10^-5 M
Excerpt: as §1

5HT2A = 5HT2A (Homo sapiens, UniProt P28223); assay: as above; format: binding
Chain of 5HT2A (P28223 whole entry, species assumed): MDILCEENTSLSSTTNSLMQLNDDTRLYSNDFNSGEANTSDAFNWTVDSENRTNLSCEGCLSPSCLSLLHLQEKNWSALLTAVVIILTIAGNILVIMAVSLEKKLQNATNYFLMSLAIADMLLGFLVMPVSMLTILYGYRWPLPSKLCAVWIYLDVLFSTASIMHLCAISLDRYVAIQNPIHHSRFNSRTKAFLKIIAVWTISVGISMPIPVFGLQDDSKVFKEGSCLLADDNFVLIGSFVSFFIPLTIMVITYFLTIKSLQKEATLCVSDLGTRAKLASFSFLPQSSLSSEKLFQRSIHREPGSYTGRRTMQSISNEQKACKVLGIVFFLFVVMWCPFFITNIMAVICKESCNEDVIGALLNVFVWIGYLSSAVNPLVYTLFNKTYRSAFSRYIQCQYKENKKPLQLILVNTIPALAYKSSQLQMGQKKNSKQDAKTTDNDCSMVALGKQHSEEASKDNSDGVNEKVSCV
Excerpt: as §1

D1 = D1 (Homo sapiens, UniProt P21728); assay: as above; format: binding; conditions: concentration 10^-5 M
Chain of D1 (P21728 whole entry): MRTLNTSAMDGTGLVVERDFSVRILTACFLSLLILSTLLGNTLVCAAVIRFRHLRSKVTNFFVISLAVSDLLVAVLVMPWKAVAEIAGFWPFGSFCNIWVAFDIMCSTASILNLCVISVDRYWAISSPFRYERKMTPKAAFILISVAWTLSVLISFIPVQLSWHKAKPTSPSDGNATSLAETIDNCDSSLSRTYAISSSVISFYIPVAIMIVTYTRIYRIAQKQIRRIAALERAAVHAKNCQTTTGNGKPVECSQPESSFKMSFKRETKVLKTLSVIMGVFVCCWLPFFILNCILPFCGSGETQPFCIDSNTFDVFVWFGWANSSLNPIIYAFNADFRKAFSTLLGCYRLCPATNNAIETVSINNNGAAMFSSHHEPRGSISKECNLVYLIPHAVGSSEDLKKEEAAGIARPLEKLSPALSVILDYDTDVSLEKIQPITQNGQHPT
Excerpt: as §1

[4] = test system: cellules endothéliales confluentes de capillaires bovins; assay: Prediction of blood-brain barrier passage (permeability across endothelial cell layer on filter); format: in vitro ADME; design: key: élevé; intermédiaire; faible; conditions: 20 µM; LC-MS-MS in lower compartment after 10, 20, 30, 40 et 60 minutes; result as class
Experimental: Les substances sont incubées à 20 µM dans le compartiment supérieur d'une double cuve séparé du compartiment inférieur soit par un filtre de polycarbonate seul, soit par le même filtre recouvert de cellules endothéliales confluentes de capillaires bovins. L'évaluation de la cinétique de perméabilité est réalisée par quantification LC-MS-MS de la substance inchangée dans le compartiment inférieur après 10, 20, 30, 40 et 60 minutes. Les dérivés testés présentent un passage généralement élevé de la BHE favorisant la cible neurologique. Les résultats sont rendus sous forme de classes : élevé, intermédiaire, faible. Ainsi, l'exemple 17 présente un passage élevé de la BHE.

[5] = read-out: % d'inhibition 5HT2A, concentration 10^-5 M

Row | SMILES | quantité de TH au niveau du LC, coupe 1 [1] [%] | quantité de TH au niveau du LC, coupe 2 [1] [%] | quantité de TH au niveau du LC, coupe 3 [1] [%] | quantité de TH au niveau du LC, coupe 4 [1] [%] | quantité de TH au niveau du LC, coupe 5 [1] [%] | quantité de TH au niveau du LC, coupe 6 [1] [%] | quantité de TH au niveau du LC, coupe 7 [1] [%] | quantité de TH au niveau du LC, coupe 8 [1] [%] | % de prédiction de stabilité métabolique sur microsomes hépatiques ([2]; Homme) [%] | % de prédiction de stabilité métabolique sur microsomes hépatiques ([2]; Rat) [%] | % de prédiction de stabilité métabolique sur microsomes hépatiques ([2]; Souris) [%] | also measured
1 | O=C1NN2c3ccccc3C[C@H]2[C@@H]2NCCC[C@H]12 (racemic) [Exemple 8, (4aSR,11aSR, 11bRS)-1,2,3,4,4a,11,11a,11b-Octahydro-1,6,6a-triazabenzo[a]fluorén-5-one] | 59 | 61 | 59 | 50 | 33 | 17 | 9 | 5 | 80 | 52 | 86 | 
2 | CN1CCC[C@@H]2C(=O)N3c4ccc(Cl)cc4C[C@H]3[C@@H]21 (racemic) [Exemple 27, (4aSR,11aSR,11bRS)-9-Chloro-1-méthyl-1,2,3,4,4a,11,11a,11b-octahydropyrido[2',3':3,4]pyrrolo[1,2-a]indol-5-one] | 55 | 67 | 54 | 46 | 26 | 29 | 3 | 5 |  |  |  | % d'inhibition σ (récepteurs sigma (σ); concentration 10^-5 M): 10%; % d'inhibition α2 [3]: 10%; inhibition at 10 µM (5HT2A; [5]): 84%
3 | CN1CCC[C@@H]2C(=O)N3c4ccccc4C[C@H]3[C@@H]21 [Exemple 45, (4aS,11aS,11bR)-1-Méthyl-1,2,3,4,4a,11,11a,11b-octahydropyrido[2',3':3,4]pyrrolo[1,2-a]indol-5-one] |  |  |  |  |  |  |  |  |  |  |  | % d'inhibition α2 [3]: 23%; % d'inhibition D1 (D1): 49%; inhibition at 10 µM (5HT2A; [5]): 92%; inhibition at 0.1 µM (5HT2A; read-out: % d'inhibition 5HT2A, concentration 10^-7 M): 13%
4 | CN1CCC[C@@H]2C(=O)N3c4ccccc4C[C@H]3[C@@H]21 [Exemple 3, (4aSR, 11aSR, 11bRS)-1-Méthyl 1,2,3,4,4a,11,11a,11b-octahydropyrido[2'3':3,4]pyrrolo[1,2-a]indol-5-one] | 104 | 97 | 69 | 58 | 49 | 31 | 10 | 8 | 59 | 31 | 61 | inhibition at 10 µM (D1; read-out: % d'inhibition D1): 39%; inhibition at 10 µM (5HT2A; concentration 10^-5 M, read-out: % d'inhibition 5HT2A): 84%
5 | C=CCN1CCC[C@@H]2C(=O)N3c4ccc(OC)cc4C[C@@H]3[C@H]21 (racemic) [Exemple 19, (4aSR,11aRS,11bSR)-1-Allyl-9-méthoxy-1,2,3,4,4a,11,11a,11b-octahydro-pyrido[2',3':3,4]pyrrolo[1,2-a]indol-5-one] | 49 | 48 | 55 | 50 | 21 | 15 | 6 | 9 |  |  |  | % d'inhibition σ (récepteurs sigma (σ); concentration 10^-5 M): 36%; % d'inhibition σ (récepteurs sigma (σ); concentration 10^-7 M): 10%
6 | CCCN1CC[C@H]2c3ccccc3N3NC(=O)C[C@@H]1[C@@H]23 (racemic) [Exemple 17, (3aRS,6aSR,10cRS)-4-Propyl 3a,4,5,6,6a,10c-hexahydro-3H-1,4,10b-triazafluoranthén-2-one] | 73 | 72 | 56 | 38 | 34 | 36 | 13 | 3 |  |  |  | passage de la BHE [4]: élevé
7 | C=CCN1CCC[C@@H]2C(=O)N3c4ccccc4C[C@@H]3[C@H]21 [Exemple 6, (4aSR, 11aRS,11bSR)-1-Allyl-1,2,3,4,4a,11,11a,11b-octahydropyrido[2 3'.3':3,4]pyrrolo[1,2-a]indol-5-one] |  |  |  |  |  |  |  |  |  |  |  | quantité de TH au niveau du LC, coupe 1 ([1]; listed as Ex.6, 20 mg/kg): 65%; quantité de TH au niveau du LC, coupe 2 ([1]; listed as Ex.6, 20 mg/kg): 62%; quantité de TH au niveau du LC, coupe 3 ([1]; listed as Ex.6, 20 mg/kg): 50%; quantité de TH au niveau du LC, coupe 4 ([1]; listed as Ex.6, 20 mg/kg): 53%; quantité de TH au niveau du LC, coupe 5 ([1]; listed as Ex.6, 20 mg/kg): 41%; quantité de TH au niveau du LC, coupe 6 ([1]; listed as Ex.6, 20 mg/kg): 27%; quantité de TH au niveau du LC, coupe 8 ([1]; listed as Ex.6, 20 mg/kg): 6%
8 | O=C1[C@H]2CCCN[C@@H]2[C@H]2Cc3ccccc3N12 (racemic) [Exemple 47, (4aSR,11aRS,11bSR)-1,2,3,4,4a,11,11a,11b-Octahydropyrido [2',3':3,4]pyrrolo[1,2-a]indol-5-one] |  |  |  |  |  |  |  |  | 86 | 85 | 99 | 
